Assay results as given in the CheMixHub viscosity set.
Values joined by “and” are separate entries in the source; they are usually repeats but may differ in a detail not shown here. Identical values can stand only once.

Assay: xn = mol fraction of the nth substance listed

C=Cc1ccccc1 + CCCCCCCC
Details	viscosity [mPa·s]
293.15 K, 101 kPa, x1 = 0.622	0.585
298.15 K, 101 kPa, x1 = 0.622	0.55
298.15 K, 101.33 kPa, x1 = 0.1009	0.512
298.15 K, 101.33 kPa, x1 = 0.1995	0.514
298.15 K, 101.33 kPa, x1 = 0.331	0.516
298.15 K, 101.33 kPa, x1 = 0.3985	0.522
298.15 K, 101.33 kPa, x1 = 0.4971	0.535
298.15 K, 101.33 kPa, x1 = 0.5989	0.558
298.15 K, 101.33 kPa, x1 = 0.7005	0.587
298.15 K, 101.33 kPa, x1 = 0.8009	0.616
298.15 K, 101.33 kPa, x1 = 0.8988	0.657
303.15 K, 101 kPa, x1 = 0.622	0.52
303.15 K, 101.33 kPa, x1 = 0.1009	0.481
303.15 K, 101.33 kPa, x1 = 0.1995	0.485
303.15 K, 101.33 kPa, x1 = 0.331	0.488
303.15 K, 101.33 kPa, x1 = 0.3985	0.495
303.15 K, 101.33 kPa, x1 = 0.4971	0.5
303.15 K, 101.33 kPa, x1 = 0.5989	0.524
303.15 K, 101.33 kPa, x1 = 0.7005	0.552
303.15 K, 101.33 kPa, x1 = 0.8009	0.575
303.15 K, 101.33 kPa, x1 = 0.8988	0.617
308.15 K, 101.33 kPa, x1 = 0.1009	0.461
308.15 K, 101.33 kPa, x1 = 0.1995	0.462
308.15 K, 101.33 kPa, x1 = 0.331	0.464
308.15 K, 101.33 kPa, x1 = 0.3985	0.467
308.15 K, 101.33 kPa, x1 = 0.4971	0.476
308.15 K, 101.33 kPa, x1 = 0.5989	0.495
308.15 K, 101.33 kPa, x1 = 0.7005	0.521
308.15 K, 101.33 kPa, x1 = 0.8009	0.55
308.15 K, 101.33 kPa, x1 = 0.8988	0.581
313.15 K, 101 kPa, x1 = 0.3202	0.43
313.15 K, 101 kPa, x1 = 0.622	0.465
323.15 K, 101 kPa, x1 = 0.622	0.418
323.15 K, 101 kPa, x1 = 0.8145	0.462
323.15 K, 101 kPa, x1 = 0.9081	0.479

O=S(=O)([N-]S(=O)(=O)C(F)(F)F)C(F)(F)F.OCCNCCO.[Li+] + O
viscosity [mPa·s], 101 kPa
Details	313.15 K	318.15 K	323.15 K
x1 = 0.03	2.3	1.83	1.52
x1 = 0.0601	4.57	3.78	3.28
x1 = 0.0999	13.16	10.06	7.95
x1 = 0.1922	61.51	40.94	28.08
x1 = 0.2941	156.6	98.53	65.24
x1 = 0.4028	299.2	187.7	123.7
x1 = 0.4989	451.2	285	192.2
x1 = 0.5999	629.9	408.1	281.1
x1 = 0.7015	835.5	557.5	393.6
x1 = 0.803	1078	736.7	530
x1 = 0.9011	1370	952.3	694.7

CC(=O)c1ccc(Cl)cc1 + C=CC#N
308.15 K, 101 kPa
Details	viscosity [mPa·s]
x1 = 0.0547	0.3753
x1 = 0.1146	0.4278
x1 = 0.1793	0.4934
x1 = 0.2555	0.5751
x1 = 0.3377	0.6821
x1 = 0.4269	0.819
x1 = 0.5441	1.026
x1 = 0.6719	1.303
x1 = 0.8213	1.697

CCN(CC)CCO.Cl + OCCOCCO
101 kPa, x2 = 0.75
Details	viscosity [mPa·s]
293.15 K	56.09
303.15 K	50.09
313.15 K	35.93
323.15 K	25.49

CCCCCCCCO + CCO
viscosity [mPa·s], 101 kPa
Details	298.15 K	303.15 K	308.15 K	318.15 K
x2 = 0.05	6.909	–	4.994	3.689
x2 = 0.1	6.475	–	4.73	3.51
x2 = 0.1301	–	5.471	–	–
x2 = 0.15	6.058	–	4.466	3.331
x2 = 0.2	5.658	–	4.204	3.154
x2 = 0.243	–	4.607	–	–
x2 = 0.25	5.273	–	3.945	2.979
x2 = 0.3	4.903	–	3.69	2.805
x2 = 0.3339	–	4.001	–	–
x2 = 0.35	4.546	–	3.441	2.634
x2 = 0.4	4.202	–	3.198	2.466
x2 = 0.45	3.871	–	2.961	2.301
x2 = 0.5	3.552	–	2.733	2.14
x2 = 0.5477	–	2.922	–	–
x2 = 0.55	3.245	–	2.512	1.982
x2 = 0.6	2.951	–	2.3	1.828
x2 = 0.65	2.668	–	2.096	1.678
x2 = 0.6979	–	2.169	–	–
x2 = 0.7	2.398	–	1.901	1.532
x2 = 0.75	2.141	–	1.714	1.391
x2 = 0.8	1.897	–	1.535	1.254
x2 = 0.8094	–	1.689	–	–
x2 = 0.85	1.668	–	1.364	1.121
x2 = 0.8948	–	1.362	–	–
x2 = 0.9	1.453	–	1.199	0.9926
x2 = 0.95	1.255	–	1.04	0.8687
x2 = 0.9602	–	1.121	–	–

BrC(Br)Br + Nc1ccccc1Cl
viscosity [mPa·s], 101 kPa
Details	x1 = 0.1006	x1 = 0.1969	x1 = 0.3023	x1 = 0.3984	x1 = 0.5023	x1 = 0.5997	x1 = 0.6951	x1 = 0.8013	x1 = 0.8983
298.15 K	2.948	2.901	2.784	2.699	2.585	2.453	2.342	2.208	2.096
303.15 K	2.693	2.616	2.509	2.425	2.326	2.244	2.15	2.045	1.955
308.15 K	2.378	2.33	2.267	2.197	2.122	2.065	1.981	1.896	1.82
313.15 K	2.122	2.102	2.062	1.995	1.96	1.896	1.831	1.764	1.697

CCCCCCCCO + CO
viscosity [mPa·s], 101 kPa
Details	298.15 K	308.15 K	318.15 K
x2 = 0.05	6.856	4.941	3.665
x2 = 0.1	6.367	4.633	3.463
x2 = 0.15	5.895	4.331	3.263
x2 = 0.2	5.44	4.035	3.065
x2 = 0.25	5.002	3.746	2.87
x2 = 0.3	4.581	3.464	2.676
x2 = 0.35	4.176	3.189	2.485
x2 = 0.4	3.789	2.921	2.296
x2 = 0.45	3.418	2.661	2.11
x2 = 0.5	3.064	2.41	1.927
x2 = 0.55	2.727	2.166	1.748
x2 = 0.6	2.408	1.933	1.573
x2 = 0.65	2.106	1.708	1.403
x2 = 0.7	1.823	1.495	1.239
x2 = 0.75	1.559	1.292	1.081
x2 = 0.8	1.314	1.101	0.9299
x2 = 0.85	1.089	0.9227	0.787
x2 = 0.9	0.8845	0.7578	0.6532
x2 = 0.95	0.7018	0.6071	0.5296

BrC(Br)Br + C=Cc1ccccc1
viscosity [mPa·s], 101.33 kPa
Details	x2 = 0.1005	x2 = 0.2006	x2 = 0.2981	x2 = 0.3985	x2 = 0.506	x2 = 0.6032	x2 = 0.7008	x2 = 0.7712	x2 = 0.8948
298.15 K	1.834	1.697	1.562	1.426	1.284	1.163	1.054	0.9849	0.8704
303.15 K	1.714	1.586	1.462	1.332	1.198	1.084	0.9817	0.9179	0.8129
308.15 K	1.603	1.481	1.361	1.24	1.117	1.01	0.9176	0.8595	0.762

CC(C)(C)N + COCCO
308.15 K, 101 kPa
Details	viscosity [mPa·s]
x2 = 0.13	0.5293
x2 = 0.2516	0.6631
x2 = 0.3656	0.7913
x2 = 0.4727	0.9167
x2 = 0.5735	1.035
x2 = 0.6668	1.083
x2 = 0.7583	1.115
x2 = 0.8432	1.152
x2 = 0.9237	1.187

CC1CCCC(O)C1 (stereo not drawn) + c1ccccc1
293.15 K, 101 kPa
Details	viscosity
x2 = 0.3	4.2 mPa·s
x2 = 0.5	2.1 mPa·s
x2 = 0.6	1.6 mPa·s
x2 = 0.7	1.5 mPa·s
x2 = 0.8	1.2 mPa·s and 1.1 mPa·s

C=Cc1ccccc1 + ClC(Cl)Cl
viscosity [mPa·s], 101.33 kPa
Details	x1 = 0.101	x1 = 0.2004	x1 = 0.3009	x1 = 0.4022	x1 = 0.5055	x1 = 0.5997	x1 = 0.705	x1 = 0.7962	x1 = 0.9
298.15 K	0.5838	0.6109	0.6357	0.6615	0.6849	0.7054	0.7267	0.7443	0.7286
303.15 K	0.5575	0.5816	0.6033	0.628	0.6463	0.6686	0.6832	0.6993	0.6841
308.15 K	0.5324	0.5513	0.5742	0.5915	0.6109	0.6272	0.6447	0.6581	0.6521

CC(C)(C)N + CC(=O)OCCC(C)C
303.15 K, 101 kPa
Details	viscosity [mPa·s]
x1 = 0.1524	0.6892
x1 = 0.239	0.6687
x1 = 0.3353	0.6526
x1 = 0.4584	0.6341
x1 = 0.5807	0.5993
x1 = 0.6423	0.5804
x1 = 0.7298	0.5464
x1 = 0.8649	0.4955

CC(=O)c1ccc(Cl)cc1 + CCNc1ccccc1
303.15 K, 100 kPa
Details	viscosity [mPa·s]
x2 = 0.0798	2.295
x2 = 0.1568	2.242
x2 = 0.2321	2.191
x2 = 0.2989	2.147
x2 = 0.3614	2.106
x2 = 0.4467	2.051
x2 = 0.5163	2.008
x2 = 0.5841	1.967
x2 = 0.6601	1.922
x2 = 0.7245	1.885
x2 = 0.7874	1.85
x2 = 0.8487	1.818
x2 = 0.9042	1.788
